Reference: ChEMBL document CHEMBL3769313, “Synthesis, structural characterization, docking, lipophilicity and cytotoxicity of 1-[(1R)-1-(6-fluoro-1,3-benzothiazol-2-yl)ethyl]-3-alkyl carbamates, novel acetylcholinesterase and butyrylcholinesterase pseudo-irreversible inhibitors” (Bioorg Med Chem, 2016)
Active and inactive are the calls of the source. The rule behind the calls is not given here.

What was measured:
[1] = n-Octanol-water partition coefficient, log P of the compound after 15 mins by shake flask method; assay type: physicochemical
Acetylcholinesterase [2] = target: Acetylcholinesterase (Electrophorus electricus, UniProt O42275); assay: Inhibition of electric eel AChE by spectrophotometric-based Ellman's method
Sequence of Acetylcholinesterase (Electrophorus electricus, UniProt O42275) (O42275 whole entry): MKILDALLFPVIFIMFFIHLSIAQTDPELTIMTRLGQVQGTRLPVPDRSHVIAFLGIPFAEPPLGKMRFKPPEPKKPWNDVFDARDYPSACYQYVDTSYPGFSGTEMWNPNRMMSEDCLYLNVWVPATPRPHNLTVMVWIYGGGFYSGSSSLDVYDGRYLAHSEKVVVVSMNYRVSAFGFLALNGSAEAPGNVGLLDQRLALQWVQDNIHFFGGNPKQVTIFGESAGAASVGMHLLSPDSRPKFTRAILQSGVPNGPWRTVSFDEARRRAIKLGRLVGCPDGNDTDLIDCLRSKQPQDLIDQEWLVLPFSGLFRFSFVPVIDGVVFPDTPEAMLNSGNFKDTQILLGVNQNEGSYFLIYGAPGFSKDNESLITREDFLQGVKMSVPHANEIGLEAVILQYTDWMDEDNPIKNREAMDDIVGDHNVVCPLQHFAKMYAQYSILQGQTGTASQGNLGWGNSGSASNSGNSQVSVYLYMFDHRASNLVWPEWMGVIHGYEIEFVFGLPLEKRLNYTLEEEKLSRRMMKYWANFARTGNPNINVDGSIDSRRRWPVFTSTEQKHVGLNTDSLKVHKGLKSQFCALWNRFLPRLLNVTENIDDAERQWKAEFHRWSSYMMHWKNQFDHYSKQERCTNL

[3] = Selectivity ratio of IC50 for electric eel AChE to IC50 for equine serum BChE
Cholinesterase = Cholinesterase (Equus caballus, UniProt P81908); assay: Inhibition of equine serum BChE by spectrophotometric-based Ellman's method
Sequence of Cholinesterase (P81908 whole entry): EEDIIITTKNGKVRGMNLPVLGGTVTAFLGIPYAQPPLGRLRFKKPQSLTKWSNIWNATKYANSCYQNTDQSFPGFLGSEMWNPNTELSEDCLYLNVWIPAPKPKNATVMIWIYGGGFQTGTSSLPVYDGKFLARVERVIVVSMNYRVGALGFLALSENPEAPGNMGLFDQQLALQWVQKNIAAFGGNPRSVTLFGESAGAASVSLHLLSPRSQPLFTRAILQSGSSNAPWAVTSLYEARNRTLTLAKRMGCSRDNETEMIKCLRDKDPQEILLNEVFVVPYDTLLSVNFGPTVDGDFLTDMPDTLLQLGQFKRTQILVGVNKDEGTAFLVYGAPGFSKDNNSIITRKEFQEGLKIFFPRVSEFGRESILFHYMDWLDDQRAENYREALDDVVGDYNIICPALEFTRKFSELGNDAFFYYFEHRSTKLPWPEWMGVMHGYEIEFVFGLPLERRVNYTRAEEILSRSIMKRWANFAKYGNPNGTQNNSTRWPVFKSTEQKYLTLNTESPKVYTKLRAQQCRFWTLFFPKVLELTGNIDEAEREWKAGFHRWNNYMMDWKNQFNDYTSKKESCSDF

[4] = Cytotoxicity against human Jurkat cells assessed as cell viability at 250 uM after 48 hrs by XTT assay relative to control; assay type: cell-based; conditions: read-out: Activity
[5] = Cytotoxicity against human Jurkat cells assessed as cell viability at 1 uM after 48 hrs by XTT assay relative to control; assay type: cell-based; conditions: read-out: Activity
[6] = target: Acetylcholinesterase (Electrophorus electricus) (UniProt O42275); assay: Potency index, ratio of rivastigmine IC50 to compound IC50 for electric eel AChE
Sequence of Acetylcholinesterase (Electrophorus electricus) (O42275 24-633 limits assumed): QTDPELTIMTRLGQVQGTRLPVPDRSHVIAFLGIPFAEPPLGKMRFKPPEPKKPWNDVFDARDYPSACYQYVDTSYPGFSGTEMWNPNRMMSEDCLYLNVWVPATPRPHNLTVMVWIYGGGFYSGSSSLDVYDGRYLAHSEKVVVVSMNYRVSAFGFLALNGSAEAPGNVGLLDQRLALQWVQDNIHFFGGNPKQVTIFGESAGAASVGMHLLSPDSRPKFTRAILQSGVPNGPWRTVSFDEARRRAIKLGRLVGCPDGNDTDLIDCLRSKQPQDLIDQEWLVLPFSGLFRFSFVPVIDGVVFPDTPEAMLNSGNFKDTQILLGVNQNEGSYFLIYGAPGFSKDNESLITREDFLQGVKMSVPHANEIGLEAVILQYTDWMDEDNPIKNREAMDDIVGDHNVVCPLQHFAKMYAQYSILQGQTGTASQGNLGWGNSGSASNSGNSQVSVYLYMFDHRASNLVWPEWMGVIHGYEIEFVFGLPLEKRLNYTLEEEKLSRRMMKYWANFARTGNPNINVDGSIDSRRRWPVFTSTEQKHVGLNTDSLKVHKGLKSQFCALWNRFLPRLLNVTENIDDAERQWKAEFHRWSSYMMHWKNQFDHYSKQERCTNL

[7] = Cytotoxicity against human Jurkat cells assessed as cell viability at 50 uM after 48 hrs by XTT assay relative to control; assay type: cell-based; conditions: read-out: Activity
[8] = Cytotoxicity against human Jurkat cells assessed as cell viability at 10 uM after 48 hrs by XTT assay relative to control; assay type: cell-based; conditions: read-out: Activity
[9] = Cytotoxicity against human Jurkat cells assessed as cell viability at 100 uM after 48 hrs by XTT assay relative to control; assay type: cell-based; conditions: read-out: Activity
[10] = target: Acetylcholinesterase (Electrophorus electricus) (UniProt O42275); assay: Pseudo-irreversible inhibition of electric eel AChE at 4 to 8 uM by spectrophotometric-based Ellman's method
[11] = target: Acetylcholinesterase (Electrophorus electricus) (UniProt O42275); conditions: 6 to 10 uM
Description: Pseudo-irreversible inhibition of electric eel AChE at 6 to 10 uM by spectrophotometric-based Ellman's method

[12] = target: Acetylcholinesterase (Electrophorus electricus) (UniProt O42275); assay: Pseudo-irreversible inhibition of electric eel AChE at 5 to 9 uM by spectrophotometric-based Ellman's method
SK-BR-3 [13] = assay: Cytotoxicity against human SK-BR-3 cells assessed as decrease in cell proliferation index at 250 uM after 91 hrs by real-time cell analysis; assay type: cell-based; conditions: sk-br-3, 91 h
SK-BR-3 [14] = assay: Cytotoxicity against human SK-BR-3 cells assessed as decrease in cell proliferation index at 1 to 100 uM after 91 hrs by real-time cell analysis; assay type: cell-based; conditions: sk-br-3, 91 h
Acetylcholinesterase [15] = target: Acetylcholinesterase (Torpedo californica, UniProt P04058); assay: Pseudo-irreversible inhibition of Torpedo californica AChE using acetylthiocholine as substrate by cornish bowden plot analysis; set-up: species or system Tetronarce californica
Sequence of Acetylcholinesterase (Torpedo californica, UniProt P04058) (P04058 whole entry): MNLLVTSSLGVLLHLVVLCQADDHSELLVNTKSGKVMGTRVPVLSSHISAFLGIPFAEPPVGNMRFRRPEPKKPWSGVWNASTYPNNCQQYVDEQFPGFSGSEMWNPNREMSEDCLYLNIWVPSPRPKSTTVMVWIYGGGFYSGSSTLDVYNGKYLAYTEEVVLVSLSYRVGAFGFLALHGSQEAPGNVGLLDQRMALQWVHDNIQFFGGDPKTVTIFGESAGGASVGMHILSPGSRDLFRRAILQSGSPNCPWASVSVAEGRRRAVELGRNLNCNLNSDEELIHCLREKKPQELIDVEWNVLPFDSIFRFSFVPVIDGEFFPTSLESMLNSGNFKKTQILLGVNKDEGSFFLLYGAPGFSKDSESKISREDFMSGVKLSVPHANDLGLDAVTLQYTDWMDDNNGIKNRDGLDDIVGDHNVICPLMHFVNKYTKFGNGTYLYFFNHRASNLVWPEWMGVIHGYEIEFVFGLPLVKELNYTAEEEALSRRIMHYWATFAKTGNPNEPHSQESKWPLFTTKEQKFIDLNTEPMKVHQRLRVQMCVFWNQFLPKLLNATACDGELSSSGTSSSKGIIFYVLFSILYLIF

SK-BR-3 [16] = assay: Cytotoxicity against human SK-BR-3 cells assessed as decrease in cell proliferation index at 250 uM by real-time cell analysis; assay type: cell-based; conditions: sk-br-3, 250 µM, TDE = time-dependent effect

C[C@@H](NC(=O)OCC(F)(F)C(F)(F)C(F)(F)F)c1nc2ccc(F)cc2s1
logP at 0.25 h [1]: 3.2
IC50 (Acetylcholinesterase [2]): 81.9 µM
Ratio IC50 [3]: 1.1
IC50 (Cholinesterase): 74.5 µM

CC(C)COC(=O)N[C@H](C)c1nc2ccc(F)cc2s1
logP at 0.25 h [1]: 4.24
IC50 (Acetylcholinesterase [2]): 12.9 µM
Ratio IC50 [3]: 0.32
IC50 (Cholinesterase): 40.2 µM

COC(=O)N[C@H](C)c1nc2ccc(F)cc2s1
logP at 0.25 h [1]: 2.5
IC50 (Acetylcholinesterase [2]): 13.6 µM
Ratio IC50 [3]: 0.15
IC50 (Cholinesterase): 90.3 µM

CCOC(=O)N[C@H](C)c1nc2ccc(F)cc2s1
viability at 48 h, 250 µM [4]: 77%
logP at 0.25 h [1]: 4.2
IC50 (Acetylcholinesterase [2]): 6.06 µM
viability at 48 h, 1 µM [5]: 87.4%
Ratio IC50 [3]: 0.3
IC50 (Cholinesterase): 20.1 µM
Ratio IC50 [6]: < 10
viability at 48 h, 50 µM [7]: 87.9%
viability at 48 h, 10 µM [8]: 87.6%
viability at 48 h, 100 µM [9]: 85.6%
inhibition [10]: Active

C[C@@H](NC(=O)OC(C)(C)C)c1nc2ccc(F)cc2s1
logP at 0.25 h [1]: 4.41
IC50 (Acetylcholinesterase [2]): 10.5 µM
Ratio IC50 [3]: 0.46
IC50 (Cholinesterase): 23.1 µM

C[C@@H](NC(=O)OCC(Cl)(Cl)Cl)c1nc2ccc(F)cc2s1
logP at 0.25 h [1]: 2.34
IC50 (Acetylcholinesterase [2]): 92.2 µM
Ratio IC50 [3]: 11.1
IC50 (Cholinesterase): 8.31 µM

COCCOC(=O)N[C@H](C)c1nc2ccc(F)cc2s1
logP at 0.25 h [1]: 3.35
IC50 (Acetylcholinesterase [2]): 56.2 µM
Ratio IC50 [3]: 0.85
IC50 (Cholinesterase): 66.3 µM

C[C@@H](NC(=O)OCCCCl)c1nc2ccc(F)cc2s1
logP at 0.25 h [1]: 1.92
IC50 (Acetylcholinesterase [2]): 80.5 µM
Ratio IC50 [3]: 2.07
IC50 (Cholinesterase): 38.8 µM

C[C@@H](NC(=O)OCC(F)(F)Cl)c1nc2ccc(F)cc2s1
viability at 48 h, 250 µM [4]: 74%
inhibition [11]: Active
logP at 0.25 h [1]: 2.82
IC50 (Acetylcholinesterase [2]): 8.14 µM
viability at 48 h, 1 µM [5]: 91.1%
Ratio IC50 [3]: 0.32
IC50 (Cholinesterase): 25.6 µM
Ratio IC50 [6]: < 10
viability at 48 h, 50 µM [7]: 89.6%
viability at 48 h, 10 µM [8]: 86.6%
viability at 48 h, 100 µM [9]: 85.7%

C[C@@H](NC(=O)OCCCl)c1nc2ccc(F)cc2s1
logP at 0.25 h [1]: 3.09
IC50 (Acetylcholinesterase [2]): 12.7 µM
Ratio IC50 [3]: 0.31
IC50 (Cholinesterase): 41.2 µM

CC(C)OC(=O)N[C@H](C)c1nc2ccc(F)cc2s1
logP at 0.25 h [1]: 5.33
IC50 (Acetylcholinesterase [2]): 16.5 µM
Ratio IC50 [3]: 0.51
IC50 (Cholinesterase): 32.7 µM

C[C@@H](NC(=O)OCC(F)(F)F)c1nc2ccc(F)cc2s1
logP at 0.25 h [1]: 2.69
IC50 (Acetylcholinesterase [2]): 40.5 µM
Ratio IC50 [3]: 0.64
IC50 (Cholinesterase): 63.4 µM

CCCOC(=O)N[C@H](C)c1nc2ccc(F)cc2s1
logP at 0.25 h [1]: 4.56
IC50 (Acetylcholinesterase [2]): 13.1 µM
Ratio IC50 [3]: 0.38
IC50 (Cholinesterase): 34.6 µM

C[C@@H](NC(=O)OCC(F)(F)C(F)F)c1nc2ccc(F)cc2s1
inhibition [12]: Active
viability at 48 h, 250 µM [4]: 80.3%
logP at 0.25 h [1]: 2.92
IC50 (Acetylcholinesterase [2]): 6.75 µM
viability at 48 h, 1 µM [5]: 93%
Ratio IC50 [3]: 0.27
Activity (SK-BR-3 [13]): Toxic
IC50 (Cholinesterase): 25 µM
Ratio IC50 [6]: < 10
viability at 48 h, 50 µM [7]: 89.3%
viability at 48 h, 10 µM [8]: 85.3%
Activity (SK-BR-3 [14]): Non-toxic
viability at 48 h, 100 µM [9]: 82.9%

C[C@@H](NC(=O)OCCBr)c1nc2ccc(F)cc2s1
logP at 0.25 h [1]: 3.17
IC50 (Acetylcholinesterase [2]): 11.4 µM
Ratio IC50 [3]: 0.3
IC50 (Cholinesterase): 38.4 µM

CCN(C)C(=O)Oc1cccc([C@H](C)N(C)C)c1 [RIVASTIGMINE]
Ki (Acetylcholinesterase [15]): 0.033 M⁻¹ s⁻¹

CCCCOC(=O)N[C@H](C)c1nc2ccc(F)cc2s1
viability at 48 h, 250 µM [4]: 49.5%
logP at 0.25 h [1]: 4.82
Activity (SK-BR-3 [16]): tde
IC50 (Acetylcholinesterase [2]): 9.26 µM
viability at 48 h, 1 µM [5]: 90.3%
Ratio IC50 [3]: 0.23
IC50 (Cholinesterase): 40.9 µM
Ratio IC50 [6]: < 10
viability at 48 h, 50 µM [7]: 88.7%
viability at 48 h, 10 µM [8]: 80.2%
Activity (SK-BR-3 [14]): Non-toxic
viability at 48 h, 100 µM [9]: 66.8%
